# Reference: patent publication US20250115597A1, “TYK2 INHIBITORS AND COMPOSITIONS AND METHODS THEREOF” (LYNK PHARMACEUTICALS CO. LTD., priority 2021, published 2025)
# Where two headings read alike, the source gives them in different places.
# Legend:
# [1] = Plasma protein binding by equilibrium dialysis; type: in vitro ADME; conditions: human plasma, equilibrium dialysis 5 hours at 37° C.; read-out: % Bound (human) (converted)
# Procedure, shortened: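 Compound spiked into plasma at 0.2 and 2 μM was dialyzed against PBS for 5 h at 37° C with shaking, in duplicate. Plasma and buffer chambers were matrix-matched, protein-precipitated and analysed by LC-MS/MS to derive % unbound, % bound and % recovery.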
# JAK1-JH2 domain = target: T1, JAK1-JH2 domain (Homo sapiens, UniProt P23458); experiment: Binding activity test for JH2 domain of JAK1 (Tb-antibody/tracer FRET)
# T1 construct: IC50 on JH2 domain activity (nM)
# T1 sequence (P23458 583-855 limits assumed): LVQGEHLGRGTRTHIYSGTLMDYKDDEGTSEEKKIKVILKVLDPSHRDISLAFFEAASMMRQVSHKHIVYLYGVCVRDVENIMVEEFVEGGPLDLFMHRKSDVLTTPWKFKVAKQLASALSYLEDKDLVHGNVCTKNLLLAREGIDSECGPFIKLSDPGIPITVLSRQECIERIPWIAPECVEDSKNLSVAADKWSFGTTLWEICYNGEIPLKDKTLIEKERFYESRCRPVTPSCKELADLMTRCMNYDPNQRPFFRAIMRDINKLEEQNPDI
# Procedure, shortened: (§1)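 FRET read-out after 60 min at 25° C plus overnight at 4° C; tracer displacement detected via Tb-labelled antibody on the JH2 domain. Dose-response used 11 points at 3-fold dilution.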
# TYK2-JH2 domain = target: T2, TYK2-JH2 domain (Homo sapiens, UniProt P29597); experiment: Binding activity test for JH2 domain of TYK2 (Tb-antibody/tracer FRET); conditions: for JAK1/TYK2 selectivity: ratio JAK1-JH2 IC50 / TYK2-JH2 IC50
# T2 construct: IC50 on JH2 domain activity (nM)
# T2 sequence (P29597 589-875 limits assumed): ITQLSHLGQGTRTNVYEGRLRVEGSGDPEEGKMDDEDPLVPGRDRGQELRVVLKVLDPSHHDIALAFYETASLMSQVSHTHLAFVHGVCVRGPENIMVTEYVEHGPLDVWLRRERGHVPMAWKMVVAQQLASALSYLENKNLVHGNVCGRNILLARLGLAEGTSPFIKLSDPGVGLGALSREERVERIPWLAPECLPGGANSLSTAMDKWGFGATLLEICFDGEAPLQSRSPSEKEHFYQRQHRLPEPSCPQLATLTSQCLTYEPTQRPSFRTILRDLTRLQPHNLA
# Procedure, shortened: as §1
# [2] = target: T3, Ba/F3-FL-TYK2-P760L cells (Homo sapiens, UniProt P29597, P760L, cells depend on it); experiment: Anti-proliferative assay, Ba/F3-FL-TYK2-P760L cells (Cell-Titer Glo); type: cell-based; conditions: 72 h, read-out: BaF3-FL-T2P760L IC50
# T3 construct: BaF3-FL-T2P760L (nM)
# T3 sequence (P29597 whole entry P760L): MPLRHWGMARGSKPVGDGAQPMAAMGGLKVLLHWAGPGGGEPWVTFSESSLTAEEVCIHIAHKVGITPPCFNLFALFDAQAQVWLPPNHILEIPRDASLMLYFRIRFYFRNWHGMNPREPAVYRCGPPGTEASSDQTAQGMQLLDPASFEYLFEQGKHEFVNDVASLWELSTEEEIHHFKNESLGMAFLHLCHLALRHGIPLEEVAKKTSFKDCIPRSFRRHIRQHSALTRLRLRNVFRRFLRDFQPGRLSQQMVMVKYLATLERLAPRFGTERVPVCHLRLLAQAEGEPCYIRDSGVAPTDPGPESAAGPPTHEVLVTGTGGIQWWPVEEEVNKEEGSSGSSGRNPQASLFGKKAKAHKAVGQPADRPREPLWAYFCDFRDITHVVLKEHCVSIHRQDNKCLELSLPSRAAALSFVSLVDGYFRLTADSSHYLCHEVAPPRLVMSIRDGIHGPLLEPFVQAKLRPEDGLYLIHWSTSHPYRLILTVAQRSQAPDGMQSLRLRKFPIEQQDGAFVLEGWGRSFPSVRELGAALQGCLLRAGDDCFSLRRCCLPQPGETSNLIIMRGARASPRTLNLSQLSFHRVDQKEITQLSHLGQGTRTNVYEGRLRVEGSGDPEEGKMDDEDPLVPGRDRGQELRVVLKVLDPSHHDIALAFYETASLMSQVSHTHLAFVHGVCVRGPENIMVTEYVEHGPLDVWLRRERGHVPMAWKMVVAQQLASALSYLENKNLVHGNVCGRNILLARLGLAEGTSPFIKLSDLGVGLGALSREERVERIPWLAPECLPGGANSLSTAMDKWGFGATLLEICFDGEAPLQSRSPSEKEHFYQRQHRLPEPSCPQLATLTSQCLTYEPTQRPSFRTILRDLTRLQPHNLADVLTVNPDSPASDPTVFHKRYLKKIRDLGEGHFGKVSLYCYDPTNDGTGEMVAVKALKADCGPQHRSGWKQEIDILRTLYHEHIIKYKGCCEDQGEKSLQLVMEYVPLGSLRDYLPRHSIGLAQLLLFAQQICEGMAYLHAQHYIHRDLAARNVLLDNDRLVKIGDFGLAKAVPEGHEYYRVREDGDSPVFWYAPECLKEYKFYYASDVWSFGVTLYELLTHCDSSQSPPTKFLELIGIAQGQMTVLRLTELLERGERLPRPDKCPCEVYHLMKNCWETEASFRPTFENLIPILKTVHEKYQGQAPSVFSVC
# Procedure, shortened: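 Compound exposure ran 72 h at 37 °C in 5% CO2 across nine 3-fold concentrations from a 20 μM top dose, added 24 h after seeding 2000 cells/well.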
# Kinetic solubility = type: physicochemical; conditions: phosphate buffer, aqueous buffer, kinetic from dmso stock, PBS (pH 7.4), 1% DMSO, room temperature
# Protocol: Aliquots of 8 μL of reference and test compound stock solutions (10 mM/5 mM) are added into 792 μL of 100 mM pH 7.4 phosphate buffer. The final DMSO concentration is 1%. Sample tubes are shaken for 2 hours at 1000 rpm at room temperature. Samples are centrifuged at 12000 rpm for 10 min to precipitate un-dissolved particles. And transfer the supernatants to a new tube or plate. Add 5 μL of samples (no diluted, 10 times diluted and 100 times diluted) and standard curve samples to 95 μL of ACN containing IS for LC-MS/MS analysis.
# [3] = Microsomal metabolic stability assay; type: in vitro ADME; conditions: pH 7.4, 0.5 mg/mL protein, 1 μM compound
# Procedure, shortened: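 Parent loss was tracked by LC/MS/MS at 0, 5, 15, 30 and 45 min, with half-life derived from the ln(% remaining)–time slope. Incubation at 37 °C, pH 7.4 phosphate/EDTA buffer: 0.5 mg/mL microsomes, 1 μM compound, NADPH-regenerated (2 mM).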
# Ba/F3-TEL-JAK2 cells = target: T4, Ba/F3-TEL-JAK2 cells (Homo sapiens, UniProt O60674); experiment: Anti-proliferative assay, Ba/F3-TEL-JAK2 cells (Cell-Titer Glo); type: cell-based; conditions: 72 h, read-out: BaF3-TEL-JAK2 IC50
# T4 construct: fused on or other part: Dimerization domain of TEL (ETV6) fused to the JAK2 kinase domain; P41212 (Transcription factor ETV6)
# T4 sequence (O60674 whole entry, change not shown, the tested form may be a part): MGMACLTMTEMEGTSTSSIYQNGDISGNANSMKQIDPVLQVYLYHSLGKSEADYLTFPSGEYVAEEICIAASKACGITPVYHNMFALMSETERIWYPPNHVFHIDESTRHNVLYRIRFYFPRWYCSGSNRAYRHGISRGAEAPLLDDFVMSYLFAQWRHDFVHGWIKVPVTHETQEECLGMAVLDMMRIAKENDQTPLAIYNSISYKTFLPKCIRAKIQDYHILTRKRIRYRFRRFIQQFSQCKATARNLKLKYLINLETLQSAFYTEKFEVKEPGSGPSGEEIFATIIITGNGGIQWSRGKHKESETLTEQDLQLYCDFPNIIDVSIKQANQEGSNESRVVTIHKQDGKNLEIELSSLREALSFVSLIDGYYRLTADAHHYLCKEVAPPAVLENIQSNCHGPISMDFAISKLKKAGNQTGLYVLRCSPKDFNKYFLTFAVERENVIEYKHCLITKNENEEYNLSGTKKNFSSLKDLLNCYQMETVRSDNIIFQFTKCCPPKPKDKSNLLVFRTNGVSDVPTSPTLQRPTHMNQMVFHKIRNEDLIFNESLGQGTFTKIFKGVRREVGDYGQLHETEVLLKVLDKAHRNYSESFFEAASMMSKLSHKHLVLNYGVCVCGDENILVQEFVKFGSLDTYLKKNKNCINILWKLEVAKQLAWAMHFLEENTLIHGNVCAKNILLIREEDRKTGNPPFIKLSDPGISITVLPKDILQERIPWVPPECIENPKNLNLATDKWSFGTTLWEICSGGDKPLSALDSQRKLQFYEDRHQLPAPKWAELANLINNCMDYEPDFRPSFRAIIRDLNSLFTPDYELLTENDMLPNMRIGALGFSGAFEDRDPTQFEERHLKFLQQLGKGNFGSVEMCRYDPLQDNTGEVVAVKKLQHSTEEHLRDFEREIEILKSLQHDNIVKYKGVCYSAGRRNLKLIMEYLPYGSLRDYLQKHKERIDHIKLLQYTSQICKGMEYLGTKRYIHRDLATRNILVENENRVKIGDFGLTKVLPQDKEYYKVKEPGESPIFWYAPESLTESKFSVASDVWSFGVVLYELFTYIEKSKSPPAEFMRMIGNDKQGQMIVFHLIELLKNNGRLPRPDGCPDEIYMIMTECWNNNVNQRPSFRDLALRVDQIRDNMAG
# Protocol: (§2) Anti-Proliferative Assay Dimerization domain of Tel protein fused with JAK kinase domain was permanently transduced into Ba/F3 cells, whose proliferation is dependent on JAK activity in the absence of IL-3 induction. These engineered Ba/F3 cells (Ba/F3-FL-TYK2-[…], Ba/F3-TEL-TYK2 and Ba/F3-TEL-JAK2) were used to monitor JAK inhibitory activities of the compounds in the cellular. […] Cells were seeded at 2000/well of white flat bottom 96-well plates. The well containing medium only was used as background control. After 24 h growth, cells were treated with compounds. The test compounds were dissolved in DMSO to a stock concentration of 20 mM. 3-fold serially diluted compounds for 9 concentrations with top concentration of 20 μM was added into the each well. […] The cells continued to grow at 37° C. in 5% CO2 for 72 h after compound treatment. The viability was measured by cellular ATP determination using the Cell-Titer Glo luciferase reagent (Promega). The Luminescence value was recorded by a multi-label reader Envision (PerkinElmer).
# Ba/F3-TEL-TYK2 cells = target: T5, Ba/F3-TEL-TYK2 cells (Homo sapiens, UniProt P29597); experiment: Anti-proliferative assay, Ba/F3-TEL-TYK2 cells (Cell-Titer Glo); type: cell-based; conditions: 72 h, read-out: BaF3-TEL-TYK2 IC50
# T5 construct: fused on or other part: Dimerization domain of TEL (ETV6) fused to the TYK2 kinase domain; P41212 (Transcription factor ETV6)
# T5 sequence (P29597 whole entry, change not shown, the tested form may be a part): as the sequence (P29597 whole entry P760L) above, with L760P counted along it
# Protocol: as §2
# pSTAT1 = experiment: Phosphorylation inhibition of STAT in human whole blood, IFN-alpha stimulated (flow cytometry); type: cell-based; conditions: 20 min; human whole blood, IFN-alpha 20 mins, CD3 cells; read-out: IC50 on pSTAT1 inhibition in h WB
# Procedure, shortened: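 Readout is pSTAT1 (Y701) in CD3-stained cells by flow cytometry, with IC50 derived from a 4-parameter logistic equation. Fresh human PBMC or fresh whole blood received a 20-min Universal Type I IFN-alpha stimulation before fixation and cold permeabilization.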
# JAK2 = target: T6, JAK2 (Homo sapiens, UniProt O60674); experiment: JAK2 kinase activity, microfluidic assay (Caliper EZ Reader II); type: biochemical; conditions: JAK2 0.125 nM, 1 mM ATP
# T6 construct: purchased Carna Biosciences
# T6 sequence (O60674 whole entry): as the sequence (O60674 whole entry, change not shown, the tested form may be a part) above
# Protocol: (§3) Testing for JAK1, JAK2 and TYK2 Kinase Activities
# (§4) JAK activity was determined in the reaction buffer 50 mM HEPES, 0.01% Brij35, 10 mM MgCl2, 2 mM DTT by a microfluidic assay. The phosphorylation of a FAM labeled peptide substrate was monitored in the Caliper EZ Reader II (Perkin Elmer). The assay condition for each batch of enzyme (Carna Biosciences) was optimized to obtain 10% conversion rate of peptide substrate.
# (§5) The test compounds were dissolved in DMSO to a stock concentration of 10 mM. Three-fold serially diluted compounds with top concentration of 5 μM were pre-incubated with JAK1, JAK2 or TYK2 for 10 min at ambient temperature. The final DMSO concentration of assay mixture was 1%. […] The reaction was stopped by adding 50 mM EDTA.
# (§6) The percent inhibition was calculated by the following formula:
# (§7) [formula] • wherein • Conversion %_max=the conversion rate in the positive well without addition of compound • Conversion %_sample=the conversion rate of test compounds • Conversion %_min=the conversion rate in the well without addition of enzyme
# (§8) The dose-response (percent inhibition) curve was plotted and IC50 values were determined by GraphPad software.
# JAK1 = target: T7, JAK1 (Homo sapiens, UniProt P23458); experiment: JAK1 kinase activity, microfluidic assay (Caliper EZ Reader II); type: biochemical; conditions: JAK1 5 nM, 1 mM ATP
# T7 construct: purchased Carna Biosciences
# T7 sequence (P23458 whole entry): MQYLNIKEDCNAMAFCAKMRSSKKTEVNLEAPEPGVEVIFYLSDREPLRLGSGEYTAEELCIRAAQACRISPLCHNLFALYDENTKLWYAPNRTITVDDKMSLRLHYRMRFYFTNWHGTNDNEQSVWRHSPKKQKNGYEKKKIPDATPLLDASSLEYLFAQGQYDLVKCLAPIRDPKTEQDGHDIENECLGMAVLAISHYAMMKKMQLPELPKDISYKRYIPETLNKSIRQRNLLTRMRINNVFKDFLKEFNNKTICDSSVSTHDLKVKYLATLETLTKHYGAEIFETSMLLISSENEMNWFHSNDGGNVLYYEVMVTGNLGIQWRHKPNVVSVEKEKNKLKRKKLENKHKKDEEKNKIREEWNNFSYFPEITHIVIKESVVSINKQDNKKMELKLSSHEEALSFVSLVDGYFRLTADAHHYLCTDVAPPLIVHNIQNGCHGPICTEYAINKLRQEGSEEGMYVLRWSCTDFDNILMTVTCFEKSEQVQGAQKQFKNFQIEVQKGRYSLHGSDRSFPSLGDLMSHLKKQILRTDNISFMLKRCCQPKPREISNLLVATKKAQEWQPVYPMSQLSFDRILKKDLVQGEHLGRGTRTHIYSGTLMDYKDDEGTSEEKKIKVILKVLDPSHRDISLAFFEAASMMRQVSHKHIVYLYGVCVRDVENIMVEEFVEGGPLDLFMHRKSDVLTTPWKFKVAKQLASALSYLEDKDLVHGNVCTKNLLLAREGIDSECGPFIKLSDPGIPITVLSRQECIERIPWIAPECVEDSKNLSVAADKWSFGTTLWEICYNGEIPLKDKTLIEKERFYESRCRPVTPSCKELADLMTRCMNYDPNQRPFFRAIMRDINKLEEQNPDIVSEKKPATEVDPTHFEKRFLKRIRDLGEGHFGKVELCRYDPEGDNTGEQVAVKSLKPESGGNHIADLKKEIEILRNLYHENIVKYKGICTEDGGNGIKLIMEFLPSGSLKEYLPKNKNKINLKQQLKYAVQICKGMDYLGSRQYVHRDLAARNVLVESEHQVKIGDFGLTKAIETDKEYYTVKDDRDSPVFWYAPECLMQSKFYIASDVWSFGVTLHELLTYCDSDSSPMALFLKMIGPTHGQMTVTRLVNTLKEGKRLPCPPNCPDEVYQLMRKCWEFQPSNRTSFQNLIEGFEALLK
# Protocol: as §3, §4, §5, §6, §7, §8
# TYK2 = target: T8, TYK2 (Homo sapiens, UniProt P29597); experiment: TYK2 kinase activity, microfluidic assay (Caliper EZ Reader II); type: biochemical; conditions: TYK2 1 nM, 1 mM ATP
# T8 construct: purchased Carna Biosciences
# T8 sequence (P29597 whole entry): as the sequence (P29597 whole entry P760L) above, with L760P counted along it
# Protocol: as §3, §4, §5, §6, §7, §8
# [4] = dog liver microsomes, read-out: Dog LM Clint
# [5] = dog liver microsomes, read-out: Dog LM T½
# [6] = human liver microsomes, read-out: Human LM Clint
# [7] = human liver microsomes, read-out: Human LM T½
# [8] = rat liver microsomes, read-out: Rat LM Clint
# [9] = rat liver microsomes, read-out: Rat LM T½
Compound,fraction unbound at 5 h [1],IC50 (JAK1-JH2 domain),IC50 (TYK2-JH2 domain),JAK1/TYK2 selectivity (TYK2-JH2 domain),GI50 [2],solubility at 2 h (Kinetic solubility),"microsomal CLint at 1 μM [3, 4]","half-life at 1 μM [3, 5]","microsomal CLint at 1 μM [3, 6]","half-life at 1 μM [3, 7]","microsomal CLint at 1 μM [3, 8]","half-life at 1 μM [3, 9]",GI50 (Ba/F3-TEL-JAK2 cells),GI50 (Ba/F3-TEL-TYK2 cells),IC50 (pSTAT1),IC50 (JAK2),IC50 (JAK1),IC50 (TYK2)
"CCC(=O)c1cnc(Nc2ccc(F)cc2)nc1Nc1cccc(-c2ncn(C)n2)c1OC [Example 8, 1-(2-((4-Fluorophenyl)amino)-4-((2-methoxy-3-(1-methyl-1H-1,2,4-triazol-3-yl)phenyl)amino)pyrimidin-5-yl)propan-1-one]",–,–,–,–,157 nM,–,–,–,–,–,–,–,7470 nM,> 20000 nM,–,–,–,–
"CNC(=O)c1cnc2cc1Nc1cc(cc(-c3ncn(C)n3)c1OC)COCc1cccc(n1)N2 [Example 34, 10-Methoxy-N-methyl-11-(1-methyl-1,2,4-triazol-3-yl)-15-oxa-2,4,8,21-tetrazatetracyclo[15.3.1.13,7.19,13]tricosa-1(21),3(23),4,6,9,11,13(22),17,19-nonaene-6-carboxamide]",–,–,–,–,125 nM,–,–,–,–,–,–,–,4350 nM,7180 nM,–,–,–,–
"[2H]C([2H])([2H])NC(=O)c1cnc(NC(=O)C2CC2)cc1Nc1cn(C)c2ncn([C@H](C)C(F)(F)F)c(=O)c12 (single isomer, unassigned) [Example 234A, (R*)-6-(cyclopropanecarboxamido)-N-(methyl-d3)-4-((7-methyl-4-oxo-3-(1,1,1-trifluoropropan-2-yl)-4,7-dihydro-3H-pyrrolo[2,3-d]pyrimidin-5-yl)amino)nicotinamide]",0.123,24.4 nM,0.521 nM,46.7,–,29.9 µM,10.9 µL/min/mg,127 min,24.3 µL/min/mg,57 min,35.3 µL/min/mg,39.3 min,–,–,495 nM,–,–,–
"CCn1ncc2cnc(Nc3cc(NC(=O)C4CC4)ncc3C(=O)NC)c(OC)c21 [Example 261, 6-(Cyclopropanecarboxamido)-4-((1-ethyl-7-methoxy-1H-pyrazolo[4,3-c]pyridin-6-yl)amino)-N-methylnicotinamide]",0.085,45.4 nM,0.956 nM,47.4,113 nM,58 µM,–,–,–,–,–,–,–,–,–,> 5000 nM,> 5000 nM,> 5000 nM
"CNC(=O)c1cnc2nc1Nc1cc(cc(-c3ncn(C)n3)c1OC)COCc1cc(ccc1F)N2 [Example 36, 18-Fluoro-10-methoxy-N-methyl-11-(1-methyl-1H-1,2,4-triazol-3-yl)-15-oxa-2,4,8,23-tetraazatetracyclo[15.3.1.1^{3,7}.1^{9,13}]tricosa-1(20),3,5,7(23),9(22),10,12,17(21),18-nonaene-6-carboxamide]",–,–,–,–,173 nM,–,–,–,–,–,–,–,892 nM,1960 nM,–,–,–,–
"[2H]C([2H])([2H])NC(=O)c1cnc(Nc2ccc(Cl)cc2)nc1Nc1cccc(-c2ncn(C)n2)c1OC [Example 3, 2-((4-Chlorophenyl)amino)-4-((2-methoxy-3-(1-methyl-1H-1,2,4-triazol-3-yl)phenyl)amino)-N-(methyl-d3) pyrimidine-5-carboxamide]",–,–,–,–,70.7 nM,–,–,–,–,–,–,–,2300 nM,5440 nM,–,–,–,–

# More lines, in order of falling GI50 [2], values ahead:
fraction unbound at 5 h [1],IC50 (JAK1-JH2 domain),IC50 (TYK2-JH2 domain),JAK1/TYK2 selectivity (TYK2-JH2 domain),GI50 [2],solubility at 2 h (Kinetic solubility),"microsomal CLint at 1 μM [3, 4]","half-life at 1 μM [3, 5]","microsomal CLint at 1 μM [3, 6]","half-life at 1 μM [3, 7]","microsomal CLint at 1 μM [3, 8]","half-life at 1 μM [3, 9]",GI50 (Ba/F3-TEL-JAK2 cells),GI50 (Ba/F3-TEL-TYK2 cells),IC50 (pSTAT1),IC50 (JAK2),IC50 (JAK1),IC50 (TYK2),Compound
0.07,11 nM,0.623 nM,17.6,68.5 nM,28.7 µM,–,–,–,–,–,–,–,–,–,–,–,–,"[2H]C([2H])([2H])NC(=O)c1cnc(NC(=O)C2CC2)cc1Nc1ccc2cnn(C)c2c1OC [Example 206, 6-(Cyclopropanecarboxamido)-4-((7-methoxy-1-methyl-1H-indazol-6-yl)amino)-N-(methyl-d3)nicotinamide]"
0.046,13.3 nM,0.33 nM,40.2,65.4 nM,32.1 µM,65.8 µL/min/mg,21.1 min,95 µL/min/mg,14.6 min,109 µL/min/mg,12.8 min,–,–,–,–,–,–,"[2H]C([2H])([2H])NC(=O)c1cnc(NC(=O)C2CC2)cc1Nc1ccc2cnn(CC(F)F)c2c1OC [Example 131, 6-(Cyclopropanecarboxamido)-4-((1-(2,2-difluoroethyl)-7-methoxy-1H-indazol-6-yl)amino)-N-(methyl-d3)nicotinamide]"
–,–,–,–,65 nM,–,4.77 µL/min/mg,290 min,2.46 µL/min/mg,563 min,14.3 µL/min/mg,96.8 min,> 20000 nM,> 20000 nM,–,–,–,–,"[2H]C([2H])([2H])NC(=O)c1cnc(Nc2ccc(C#N)cc2)nc1Nc1cccc(-c2ncn(C)n2)c1OC [Example 28, 2-((4-Cyanophenyl)amino)-4-((2-methoxy-3-(1-methyl-1H-1,2,4-triazol-3-yl)phenyl)amino)-N-(methyl-d3) pyrimidine-5-carboxamide]"
–,–,–,–,23.6 nM,–,–,–,–,–,–,–,> 20000 nM,> 20000 nM,–,–,–,–,"CNC(=O)c1cnc(Nc2ccc(F)cn2)cc1Nc1csc2ccn(C)c(=O)c12 [Example 15, 6-((5-Fluoropyridin-2-yl)amino)-N-methyl-4-((5-methyl-4-oxo-4,5-dihydrothieno[3,2-c]pyridin-3-yl)amino)nicotinamide]"
